Patent publication US9763923B2, “Composition for reducing senescence of cell or subject including BRAF inhibitor and use thereof” (Samsung Electronics Co., Ltd., priority 2015, dated 2017)

What was measured:
Assay type in all cases: cell-based
[1] = tested on: senescent human dermal fibroblast (HDF) M11 cells; assay: Mitochondrial reactive oxygen species (MitoSOX Red); conditions: 0.1 μM, about 3 weeks, vs DMSO
Procedure: (§1) In order to examine whether senescent cells proliferate in response to treatment with BRAF inhibitors, human dermal fibroblast (HDF) M11 cells taken from a child are cultured in Dulbecco's Modified Eagle's Medium (DMEM) containing a high concentration of glucose, glutamine, and pyruvate, and 10% (v/v) fetal bovine serum (FBS), and 1× penicillin/streptomycin at about 37° C. and 5% CO2 atmosphere, thereby obtaining senescent cells. As for the senescent cells, cells that are passaged 35 times and whose doubling time is about 10 days or longer are used.
(§2) As described in 1, 0.1 μM SB590885 is added to the prepared senescent cells, which are cultured in the presence of SB590885 for about 3 weeks. Cells treated with DMSO (Sigma-Adrich) alone are used as a negative control group.
In order to measure mitochondrial function in senescent cells, the amount of reactive oxygen species (ROS) in the prepared senescent cells is measured using a MitoSOX™ Red Mitochondrial Superoxide indicator (Life technologies). A relative ROS amount of the senescent cells cultured in the presence of SB590885 to that of the negative control group is shown in FIG. 4B. […] Accordingly, SB590885 inhibits mitochondrial damage in senescent cells.
As described in 3(2), the amount of ROS in the senescent cells is measured. A relative ROS ratio of the senescent cells cultured in the presence of TAK-632 to the negative control group is calculated.
As described in 3.(2), the amount of ROS in the senescent cells is measured. A relative ROS ratio of the senescent cells cultured in the presence of vemurafenib to the negative control group is calculated.

[2] = tested on: senescent human dermal fibroblast (HDF) M11 cells; assay: Lysosome accumulation (LysoTracker Blue DND-22, FACS); conditions: 0.1 μM, about 3 weeks, vs DMSO
Procedure: as §1, §2
In order to measure lysosome accumulation in senescent cells, the prepared senescent cells are stained using a LysoTracker®Blue DND-22 (Life Technologies, Cat. No. L-7525). The amount of lysosome is quantified by measuring the fluorescent radiation having a wavelength of 422 nm while irradiating the stained senescent cells with rays having a wavelength at about 373 nm using a FACSCaliber (Beckton Dickson). The amount (%) of lysosome in the cells cultured in the presence of SB590885 relative to that of the negative control group is shown in FIG. 4C.
As described in 3(2), the amount of lysosomes in senescent cells is measured and the amount (%) of lysosome in the cells cultured in the presence of TAK-632 relative to that of the negative control group is shown in FIG. 5C.
As described in 3.(2), the amount of lysosomes in senescent cells is measured and the amount (%) of lysosome in the cells cultured in the presence of vemurafenib relative to that of the negative control group is shown in FIG. 6C.

[3] = tested on: senescent human dermal fibroblast (HDF) M11 cells; assay: Relative proliferation rate of senescent cells (SYBR Green I DNA quantification); conditions: 5 μM, about 3 weeks, vs DMSO negative control
Procedure: as §1
The prepared senescent cells are inoculated at a density of 1000 cells/well in a 96-well plate. The BRAF inhibitor is added to the inoculated cells at a final concentration of 5 μM. SB590885, vemurafenib (PLX4032, RG7204), TAK-632, CEP-32496, GDC-0879, PLX-4720, ZM 336372, Sorafenib tosylate, Sorafenib, GW5074, Dabrafenib (GSK2118436), AZ 628, RAF265 (CHIR-265), and NVP-BHG712 are used as BRAF inhibiting drugs. Cells treated with dimethyl sulfoxide (DMSO) (Sigma-Aldrich) alone are used as a negative control group. The medium is replaced with a fresh medium containing the drug or DMSO alone once every four days. About 3 weeks after initial addition of the drug, 0.1% (w/v) SYBR Green I (Life Technologies, Cat. No. S-7563) is used to quantify DNA, and the number of cells is calculated from the DNA quantity measured.
The number of the senescent cells in the drug-treated group is compared to the number of the cells in the negative control group so as to calculate a relative proliferation rate. The relative proliferation rates of senescent cells treated with BRAF inhibitors to that of the negative control group are shown in FIG. 1.
The senescent cells prepared as described in 1 are inoculated at a density of 1000 cells/well in a 96-well plate. […]
Then, SYBR Green I (Life Technologies, Cat. No. S-7563) is used to quantify DNA in the senescent cells thus cultured, and the number of cells is calculated from the DNA quantity measured. […]

[4] = tested on: senescent human dermal fibroblast (HDF) M11 cells; assay: Lipofuscin accumulation by autofluorescence (FACS); conditions: 0.1 μM, about 3 weeks, vs DMSO
Procedure: as §1, §2
As lipofuscin in senescent cells emits autofluorescence, accumulation of lipofuscin is analyzed by measuring the fluorescent radiation having a wavelength of 520 nm while irradiating the senescent cells with rays having a wavelength at about 488 nm using a FACSCaliber (Beckton Dickson). A relative autofluorescence ratio of the senescent cells cultured in the presence of SB590885 to the negative control group is calculated.
As described in 1, 0.1 μM TAK-632 is added to the prepared senescent cells, which are cultured in the presence of TAK-632 for about 3 weeks. Cells treated with DMSO (Sigma-Adrich) alone are used as a negative control group.
As described in 3(2), autofluorescence in the senescent cells is measured and a relative autofluorescence ratio of the senescent cells cultured in the presence of TAK-632 to the negative control group is calculated.
As described in 1, 0.1 μM vemurafenib is added to the prepared senescent cells, which are cultured in the presence of vemurafenib for about 3 weeks. Cells treated with DMSO (Sigma-Adrich) alone are used as a negative control group.
As described in 3.(2), autofluorescence in the senescent cells is measured and a relative autofluorescence ratio of the senescent cells cultured in the presence of vemurafenib to the negative control group is calculated.

Row | Structure (SMILES) | ROS relative to negative control group [1] | decrease in the amount of ROS compared to negative control group [1] | decrease in lysosome accumulation compared to negative control group [2] | proliferation rate higher than the negative control group [3] | autofluorescence relative to negative control group [4] | decrease in lipofuscin compared to negative control group [4]
1 | CN(C)CCOc1ccc(-c2nc(-c3ccncc3)c(-c3ccc4c(c3)CC/C4=N\O)[nH]2)cc1 [SB590885] | about 38% | about 60% | about 25% | about 30% | about 28% | 70%
2 | N#Cc1c(Oc2ccc(F)c(NC(=O)Cc3cccc(C(F)(F)F)c3)c2)ccc2nc(NC(=O)C3CC3)sc12 [TAK-632] |  | ~40% | ~40% | about 30% |  | ~48%
3 | CCCS(=O)(=O)Nc1ccc(F)c(C(=O)c2c[nH]c3ncc(-c4ccc(Cl)cc4)cc23)c1F [vemurafenib] |  | about 40% | about 40% | about 30% |  | about 60%
